From patent US8404689B2, “Heterocyclic amide compounds useful as kinase inhibitors” (Bristol-Myers Squibb Company, priority 2006, dated 2013) come the findings set out here.

T1 sequence (Q16539 whole entry): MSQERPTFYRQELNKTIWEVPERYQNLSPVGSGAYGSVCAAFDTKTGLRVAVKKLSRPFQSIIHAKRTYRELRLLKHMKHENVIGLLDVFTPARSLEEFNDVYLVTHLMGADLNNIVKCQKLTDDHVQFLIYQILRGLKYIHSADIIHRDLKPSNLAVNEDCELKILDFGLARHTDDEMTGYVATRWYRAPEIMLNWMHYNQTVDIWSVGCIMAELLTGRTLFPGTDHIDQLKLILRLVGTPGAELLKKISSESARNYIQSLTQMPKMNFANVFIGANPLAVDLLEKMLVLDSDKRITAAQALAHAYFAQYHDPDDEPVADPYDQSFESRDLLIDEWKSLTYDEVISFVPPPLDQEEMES

This assay has as its target T1, p38alpha (Homo sapiens, UniProt Q16539).
T1 construct: GST (N); made in house; host or cells: E. coli (pGEX vector)
The assay is described as follows: p38α Assay (Caliper LabChip, fluoresceinated peptide). Particulars: ratio of p38 beta IC50 to p38 alpha IC50; higher numbers indicate greater alpha selectivity. It is filed as biochemical.
For `Cc1ccc(C(=O)NC2CC2)cc1NC(=O)c1ccc(-c2ccc(F)nc2)s1` [Example 169, N-(5-(cyclopropylcarbamoyl)-2-methylphenyl)-5-(6-fluoropyridin-3-yl)thiophene-2-carboxamide], the “beta/alpha (alpha selectivity)” value amounted to 257.

Take `CCNC(=O)c1ccc(-c2ccc(C(=O)Nc3cc(C(=O)NC4CC4)ccc3C)s2)cc1` [Example 181, N-(5-(cyclopropylcarbamoyl)-2-methylphenyl)-5-(4-(ethylcarbamoyl)phenyl)thiophene-2-carboxamide]: the “beta/alpha (alpha selectivity)” value was found to be 240.

Turning to `Cc1ccc(C(=O)NC2CC2)cc1NC(=O)c1ccc(-c2ccc(C(=O)NC(C)C)cc2)s1` [Example 182, N-(5-(cyclopropylcarbamoyl)-2-methylphenyl)-5-(4-(isopropylcarbamoyl)phenyl)thiophene-2-carboxamide], the “beta/alpha (alpha selectivity)” value was determined as 118.

Regarding `Cc1ccc(C(=O)NC2CC2)cc1NC(=O)c1ccc(-c2ncccc2C(F)(F)F)s1` [Example 210, N-(5-(Cyclopropylcarbamoyl)-2-methylphenyl)-5-(3-(trifluoromethyl)pyridin-2-yl)thiophene-2-carboxamide], the “beta/alpha (alpha selectivity)” value amounted to 433.

As to `Cc1ccc(C(=O)NC2CC2)cc1NC(=O)c1ccc(-c2cccc(CO)c2)s1` [Example 160, N-(5-(cyclopropylcarbamoyl)-2-methylphenyl)-5-(3-(hydroxymethyl)phenyl)thiophene-2-carboxamide], the “beta/alpha (alpha selectivity)” value is 233.

In the case of `Cc1ccc(C(=O)NC2CC2)cc1NC(=O)c1ccc(-c2cc(F)cc(F)c2)s1` [Example 148, N-(5-(cyclopropylcarbamoyl)-2-methylphenyl)-5-(3,5-difluorophenyl)thiophene-2-carboxamide], the “beta/alpha (alpha selectivity)” value amounted to 160.

As to `Cc1ccc(C(=O)NC2CC2)cc1NC(=O)c1cc(-c2cccnc2)cs1` [Example 204, N-(5-(Cyclopropylcarbamoyl)-2-methylphenyl)-4-(pyridin-3-yl)thiophene-2-carboxamide], the “beta/alpha (alpha selectivity)” value worked out at 379.

Turning to `COc1ccc(-c2ccc(C(=O)Nc3cc(C(=O)NC4CC4)ccc3C)s2)c(OC)c1` [Example 153, N-(5-(cyclopropylcarbamoyl)-2-methylphenyl)-5-(2,4-dimethoxyphenyl)thiophene-2-carboxamide], the “beta/alpha (alpha selectivity)” value stood at 228.

With `Cc1ccc(C(=O)NC2CC2)cc1NC(=O)c1ccc2c(C#N)cn(C)c2c1` [Example 223, 3-Cyano-N-(5-(cyclopropylcarbamoyl)-2-methylphenyl)-1-methyl-1H-indole-6-carboxamide], the “beta/alpha (alpha selectivity)” value was determined as 423.

On to `Cc1ccc(C(=O)NC2CC2)cc1NC(=O)c1c[nH]c2ccccc12` [Example 221, N-(5-(cyclopropylcarbamoyl)-2-methylphenyl)-1H-indole-3-carboxamide], for which the “beta/alpha (alpha selectivity)” value is on record as 540.

In the case of `Cc1ccc(C(=O)NC2CC2)cc1NC(=O)c1ccc(-c2cccc(N)c2)s1` [Example 159, 5-(3-aminophenyl)-N-(5-(cyclopropylcarbamoyl)-2-methylphenyl)thiophene-2-carboxamide], the “beta/alpha (alpha selectivity)” value was 200.

As to `Cc1ccc(C(=O)NC2CC2)cc1NC(=O)c1ccc2ccn(CCN3CCOCC3)c2c1` [Example 225, N-(5-(Cyclopropylcarbamoyl)-2-methylphenyl)-1-(2-morpholinoethyl)-1H-indole-6-carboxamide], the “beta/alpha (alpha selectivity)” value came out at 448.

With `Cc1ccc(C(=O)NC2CC2)cc1NC(=O)c1ccc(-c2ccc(C(N)=O)cc2)s1` [Example 185, 5-(4-carbamoylphenyl)-N-(5-(cyclopropylcarbamoyl)-2-methylphenyl)thiophene-2-carboxamide], the “beta/alpha (alpha selectivity)” value is 162.

Consider `Cc1ccc(C(=O)NC2CC2)cc1NC(=O)c1ccc(-c2cccc(C(=O)O)c2)s1` [Example 146, 3-(5-(5-(cyclopropylcarbamoyl)-2-methylphenylcarbamoyl)thiophen-2-yl)benzoicacid], for which the “beta/alpha (alpha selectivity)” value stood at 248.

In the case of `Cc1ccc(C(=O)NC2CC2)cc1NC(=O)c1ccc(-c2ccc[n+]([O-])c2)s1` [Example 196, 3-(5-(5-(Cyclopropylcarbamoyl)-2-methylphenylcarbamoyl)thiophen-2-yl)pyridine 1-oxide], the “beta/alpha (alpha selectivity)” value was found to be 225.
